# Literature values, collected in US8454993B2, “Controlled release pharmaceutical compositions of pregabalin” (Lupin Limited, priority 2007, dated 2013).
# Details: in water and both basic and acidic aqueous solutions
structure (smiles),measurement,value
"CC(C)C[C@H](CN)CC(=O)O [Pregabalin, (S)-(+)-3-(aminomethyl)-5-methylhexanoic acid]",solubility,freely soluble
